Measurements: patent US5985878A, “Angiogenesis inhibiting pyridazinamines” (Janssen Pharmaceuticals, N.V., priority 1996, dated 1999)

Assays:
[1] = test system: rat aortic ring; test: Angiogenesis inhibitory activity in vitro, rat aortic ring model (microvessel formation); format: cell-based; conditions: 192 h, microvessel area following eight days in culture
Protocol: Angiogenosis inhibitory activity was measured in vitro using the rat aortic ring model of angiogenesis as described by Nicosia, R. F. and Ottinetti in "Laboratory Investigation", vol. 63, p. 115, 1990. The ability of compounds to inhibit microvessel formation was compared to velicle-treatedcontrol rings.

[2] = test system: angiogenesis; test: In vivo angiogenesis inhibitory activity, Matrigel model; design: species or system warm-blooded animal; conditions: po, administered orally
Protocol: The in vivo angiogenesis inhibitory activity was measured using the Matrigel model, as described in U.S. Pat. No. 5,382,514. Briefly, a liquid, containing extracts of murine basement membrane and an angiogenic growth factor (e.g. VEGF, bFGF, aFGF), was injected in a warm-blooded animal where it fonns a gel matrix. After a period of time, the gel is recovered from the anmimal and angiogenesis is quantitated. The test compounds were administered orally at a dose of 0.1 mg/kg.

| SMILES | IC50 [1] [pM] | inhibition in vivo at 0.1 mg/kg [2] [%] |
| --- | --- | --- |
| Cc1nsc(-c2ccc(N3CCN(c4cccc(Cl)c4)CC3)nn2)n1 [Compound 2, 3-[4-(3-chlorophenyl)-1-piperazinyl]-6-(3-methyl-1,2,4-thiadiazol-5-yl)pyridazine] | 600 | > 70 |
| Cc1nsc(-c2ccc(N3CCN(c4cccc(Cl)c4)C(C)C3)nn2)n1 (stereo not shown) [Compound 13] | 800 | – |
| Cc1nsc(-c2ccc(N3CCC(c4cccc(C(F)(F)F)c4)C3)nn2)n1 (stereo not shown) [Compound 30] | – | > 70 |
| Cc1nsc(-c2ccc(N3CCCC(c4cccc(C(F)(F)F)c4)CC3)nn2)n1 (stereo not shown) [Compound 32] | 900 | – |
| Cc1nsc(-c2ccc(N3CCN(C4CCN(c5cccc(C(F)(F)F)c5)CC4)CC3)nn2)n1 [Compound 44] | 700 | – |
| Cc1nsc(-c2ccc(N3CCC(Nc4cccc(C(F)(F)F)c4)CC3)nn2)n1 [Compound 47] | – | > 70 |
| Cc1nsc(-c2ccc(N3CCC(OCc4cccc(C(F)(F)F)c4)CC3)nn2)n1 [Compound 48] | 500 | – |
| Cc1nsc(-c2ccc(N3CCC(N4CCN(c5cccc(C(F)(F)F)c5)CC4)CC3)nn2)n1 [Compound 53, 3-(3-methyl-1,2,4-thiadiazol-5-yl)-6-[4-[4-[3-(trifluoromethyl)phenyl]-1-piperazinyl]-1-piperidinyl]pyridazine] | 300 | > 70 |
| Cc1nsc(-c2ccc(N3CCC(OC(c4ccccc4)c4ccccc4)CC3)nn2)n1 [Compound 54] | – | > 70 |
| Cc1nsc(-c2ccc(N3CCC(COc4cccc(Cl)c4)CC3)nn2)n1 [Compound 56] | 900 | – |
| Cc1nsc(-c2ccc(N3CC=C(c4cccc(C(F)(F)F)c4)CC3)nn2)n1 [Compound 66] | 300 | – |
| Cc1nsc(-c2ccc(N3CCN(c4cccc(Br)c4)CC3)nn2)n1 [Compound 72] | 500 | – |
| COc1ccc(Cl)c(N2CCN(c3ccc(-c4nc(C)ns4)nn3)CC2)c1 [Compound 75] | 600 | > 70 |
| Cc1nsc(-c2ccc(N3CCN(c4cc(Cl)c(Cl)cc4Cl)CC3)nn2)n1 [Compound 82] | 800 | > 70 |
| Cc1nsc(-c2ccc(N3CCN(c4ccc(Br)c(C(F)(F)F)c4)CC3)nn2)n1 [Compound 88, 3-[4-[4-bromo-3-(trifluoromethyl)phenyl]-1-piperazinyl]-6-(3-methyl-1,2,4-thiadiazol-5-yl)pyridazine] | – | > 70 |
| Cc1nsc(-c2ccc(N3CCC(C(=O)c4cccc(C(F)(F)F)c4)CC3)nn2)n1 [Compound 130] | 300 | – |
| Cc1nsc(-c2ccc(N3CCC(C(O)c4cccc(C(F)(F)F)c4)CC3)nn2)n1 (stereo not shown) [Compound 134] | 600 | > 70 |
| Cc1nsc(-c2ccc(N3CCC(C(=O)c4cccc(Cl)c4)CC3)nn2)n1 [Compound 135] | 500 | – |
| Cc1nsc(-c2ccc(N3CCC(N(C)Cc4cccc(C(F)(F)F)c4)CC3)nn2)n1 [Compound 137] | 500 | – |
| Cc1nsc(-c2ccc(N3CCC(Sc4cccc(Cl)c4)CC3)nn2)n1 [Compound 139] | 500 | – |
| Cc1nsc(-c2ccc(N3CCC(N(C)c4cccc(C(F)(F)F)c4)CC3)nn2)n1 [Compound 142] | 300 | – |
| Cc1nsc(-c2ccc(N3CCC(Nc4cccc(C(F)(F)F)c4)C3)nn2)n1 (stereo not shown) [Compound 169] | 800 | – |
| Cc1nsc(-c2ccc(N3C4CCC3CC(c3cccc(C(F)(F)F)c3)C4)nn2)n1 (stereo not shown) [Compound 177] | 700 | > 70 |

Second part, led by results:

| IC50 [1] [pM] | SMILES | inhibition in vivo at 0.1 mg/kg [2] [%] |
| --- | --- | --- |
| 200 | Cc1nsc(-c2ccc(N3CC[C@@H](c4cccc(C(F)(F)F)c4)[C@@H](C)C3)nn2)n1 (relative stereo) [Compound 108] | – |
| 300 | Cc1nsc(-c2ccc(N3CCN(c4cccc(C(F)(F)F)c4)CC3)nn2)n1 [Compound 1, 3-(3-methyl-1,2,4-thiadiazol-5-yl)-6-[4-[3-(trifluoromethyl)phenyl]-1-piperazinyl]pyridazine] | – |
| 50 | Cc1nsc(-c2ccc(N3CCN(c4cc(Cl)cc(Cl)c4)CC3)nn2)n1 [Compound 23] | – |
| 300 | Cc1nsc(-c2ccc(N3CCN(c4cccc(Cl)c4Cl)CC3)nn2)n1 [Compound 24] | – |
| 200 | Cc1nsc(-c2ccc(N3CCN(c4cc(Cl)ccc4Cl)CC3)nn2)n1 [Compound 27] | – |
| 52 | Cc1nsc(-c2ccc(N3CCC(c4cccc(C(F)(F)F)c4)CC3)nn2)n1 [Compound 31, 3-(3-methyl-1,2,4-thiadiazol-5-yl)-6-[4-[3-(trifluoromethyl)phenyl]-1-piperidinyl]pyridazine] | > 70 |
| 50 | Cc1nsc(-c2ccc(N3CCN(c4cc(C(F)(F)F)cc(C(F)(F)F)c4)CC3)nn2)n1 [Compound 74] | > 70 |
| 200 | Cc1nsc(-c2ccc(N3CCN(c4ccccc4C(F)(F)F)CC3)nn2)n1 [Compound 76] | – |
| < 100 | Cc1nsc(-c2ccc(N3CCN(c4ccc(Br)cc4[N+](=O)[O-])CC3)nn2)n1 [Compound 85] | – |
| 200 | Cc1nsc(-c2ccc(N3CCC(c4cc(C(F)(F)F)cc(C(F)(F)F)c4)CC3)nn2)n1 [Compound 111] | – |
| 200 | Cc1nsc(-c2ccc(N3CCC(Cc4cccc(C(F)(F)F)c4)CC3)nn2)n1 [Compound 132] | – |
| 200 | Cc1nsc(-c2ccc(N3CCC(C(C#N)c4cccc(Cl)c4)CC3)nn2)n1 (stereo not shown) [Compound 138] | > 70 |
| 200 | Cc1nsc(-c2ccc(N3CCC(N4CCN(c5cc(Cl)cc(Cl)c5)CC4)CC3)nn2)n1 [Compound 160] | – |
| < 100 | Cc1nsc(-c2ccc(N3CCC(N4CCN(c5cc(C(F)(F)F)cc(C(F)(F)F)c5)CC4)CC3)nn2)n1 [Compound 161] | – |
